The nature of the series: Assay (IV) determination of solubility. Type of series: physicochemical. As for the experimental part:
Assay (IV)—Determination of Solubility
The mimylin peptide was dissolved in water at ˜500 nmol/ml and mixed 1:1 with a series of buffers (100 mM glycylglycine pH 3.0, 100 mM glycylglycine pH 4.0, 100 mM glycylglycine pH 5.0, 100 mM bistrispropane pH 6.0, 100 mM bistrispropane pH 6.5, 100 mM bistrispropane pH 7.0, 100 mM bistrispropane pH 7.5, 100 mM bistrispropane pH 8.0).

≈ marks a conversion by molar mass, not a printed value. Numbered stars: 1 amine (or outer) side, 2 acyl side, 3 side chain; on linkers, the order of the positions; unused ones are H or OH. Peptide text beside a SMILES is read from it. * marks the point of attachment. C20 diacid = O=C(O)CCCCCCCCCCCCCCCCCCC(=O)*; C18 diacid = O=C(O)CCCCCCCCCCCCCCCCC(=O)*; γGlu = O=C(O)[C@H](CCC(=O)[*:2])N[*:1]; AEEA = NCCOCCOCC(=O)O

The solubility is how much of the substance goes into solution per volume. A higher solubility goes with a readily soluble substance.

With `CC(C)C[C@H](NC(=O)[C@H](C)NC(=O)[C@H](C)NC(=O)[C@@H](NC(=O)[C@H](CO)NC(=O)[C@H](CC(C)C)NC(=O)[C@H](CCC(=O)O)NC(=O)[C@H](CO)NC(=O)[C@H](C)NC(=O)CC[C@H](NC(=O)CCCCCCCCCCCCCCCCCCC(=O)O)C(=O)O)[C@@H](C)O)C(=O)NCC(=O)N[C@@H](CCCNC(=N)N)C(=O)N[C@@H](CC(C)C)C(=O)N[C@@H](CO)C(=O)N[C@@H](C)C(=O)N[C@@H](CCC(=O)O)C(=O)N[C@@H](CC(C)C)C(=O)N[C@@H](Cc1cnc[nH]1)C(=O)N[C@@H](CCC(=O)O)C(=O)N[C@@H](CC(C)C)C(=O)N[C@@H](C)C(=O)N[C@H](C(=O)N[C@@H](CC(C)C)C(=O)N1CCC[C@H]1C(=O)N[C@@H](CCCNC(=N)N)C(=O)N[C@H](C(=O)N[C@@H](CCC(=O)O)C(=O)N[C@H](C(=O)NCC(=O)N[C@@H](CO)C(=O)NCC(=O)N[C@@H](CO)C(=O)N[C@@H](C)C(N)=O)[C@@H](C)O)[C@@H](C)O)[C@@H](C)O` [compound 65, [N-terminal(C20 diacid-gGlu), des1, 30S, 31G, 33A]mimylin] ({C20 diacid-γGlu}-ASELSTAALGRLSAELHELATLPRTETGSGSA-NH2), the Solubility entry is given as “≧200 μM” (pH 3.0); “≧200 μM” (pH 4.0); “≧200 μM” (pH 5.0); “≧200 μM” (pH 6.0); “≧200 μM” (pH 6.5); “≧200 μM” (pH 7.0). Besides, the Solubility result (pH 7.5) is “≧200 μM” and the Solubility result (pH 8.0) is “≧200 μM”.

Turning to `CC(C)C[C@H](NC(=O)[C@H](C)NC(=O)[C@H](C)NC(=O)[C@@H](NC(=O)[C@H](CO)NC(=O)[C@H](CC(C)C)NC(=O)[C@H](CCC(=O)O)NC(=O)[C@H](CO)NC(=O)[C@H](C)NC(=O)COCCOCCNC(=O)COCCOCCNC(=O)COCCOCCNC(=O)COCCOCCNC(=O)CC[C@H](NC(=O)CCCCCCCCCCCCCCCCCCC(=O)O)C(=O)O)[C@@H](C)O)C(=O)NCC(=O)N[C@@H](CCCNC(=N)N)C(=O)N[C@@H](CC(C)C)C(=O)N[C@@H](CO)C(=O)N[C@@H](C)C(=O)N[C@@H](CCC(=O)O)C(=O)N[C@@H](CC(C)C)C(=O)N[C@@H](Cc1cnc[nH]1)C(=O)N[C@@H](CCC(=O)O)C(=O)N[C@@H](CC(C)C)C(=O)N[C@@H](C)C(=O)N[C@H](C(=O)N[C@@H](CC(C)C)C(=O)N1CCC[C@H]1C(=O)N[C@@H](CCCNC(=N)N)C(=O)N[C@H](C(=O)N[C@@H](CCC(=O)O)C(=O)N[C@H](C(=O)NCC(=O)N[C@@H](CO)C(=O)NCC(=O)N[C@@H](CO)C(=O)N1CCC[C@H]1C(N)=O)[C@@H](C)O)[C@@H](C)O)[C@@H](C)O` [compound 44, [N-terminal(C20 diacid-gGlu-4xOEG), des1, 30S, 31G]mimylin] ({C20 diacid-γGlu-AEEA-AEEA-AEEA-AEEA}-ASELSTAALGRLSAELHELATLPRTETGSGSP-NH2), the Solubility entry by setting is: (pH 3.0) “≧200 μM”; (pH 4.0) “≧200 μM”; (pH 5.0) “≧200 μM”; (pH 6.0) “≧200 μM”; (pH 6.5) “≧200 μM”; (pH 7.0) “≧200 μM”. For the same compound, the Solubility result was “≧200 μM” (pH 7.5) and “≧200 μM” (pH 8.0).

With `CC(C)C[C@H](NC(=O)[C@H](CCCNC(=N)N)NC(=O)CNC(=O)[C@H](CC(C)C)NC(=O)[C@@H](NC(=O)[C@H](C)NC(=O)[C@@H](NC(=O)[C@H](CO)NC(=O)[C@@H](NC(=O)[C@H](CCC(=O)O)NC(=O)[C@H](CO)NC(=O)[C@H](C)NC(=O)[C@H](CCC(=O)O)NC(=O)CCCCCCCCCCCCCCCCC(=O)O)C(C)C)[C@@H](C)O)C(C)C)C(=O)N[C@@H](CO)C(=O)N[C@@H](C)C(=O)N[C@@H](CCC(=O)O)C(=O)N[C@@H](CC(C)C)C(=O)N[C@@H](Cc1cnc[nH]1)C(=O)N[C@@H](CCC(=O)O)C(=O)N[C@H](C(=O)N[C@@H](C)C(=O)N[C@H](C(=O)N[C@@H](CC(C)C)C(=O)N1CCC[C@H]1C(=O)N[C@@H](CCCNC(=N)N)C(=O)N[C@H](C(=O)N[C@@H](CCC(=O)O)C(=O)N[C@H](C(=O)NCC(=O)N1CCC[C@H]1C(=O)N[C@@H](CCC(=O)O)C(=O)N[C@@H](CO)C(=O)N1CCC[C@H]1C(N)=O)[C@@H](C)O)[C@@H](C)O)[C@@H](C)O)C(C)C` [compound 36, [N-terminal(C18 diacid), 5V, 9V, 20V]mimylin] ({C18 diacid}-EASEVSTAVLGRLSAELHEVATLPRTETGPESP-NH2), the solubility at 18 h runs as follows: (pH 3.0) 117 µM (≈ 436 µg/mL); (pH 4.0) 9 µM (≈ 33.6 µg/mL); (pH 5.0) 10 µM (≈ 37.3 µg/mL). Moreover, the Solubility entry is reported as “≧200 μM” (pH 6.0); “≧200 μM” (pH 6.5); “≧200 μM” (pH 7.0); “≧200 μM” (pH 7.5); “≧200 μM” (pH 8.0).

As for `CC(C)C[C@H](NC(=O)[C@H](C)NC(=O)[C@H](C)NC(=O)[C@@H](NC(=O)[C@H](CO)NC(=O)[C@H](CC(C)C)NC(=O)[C@H](CCC(=O)O)NC(=O)[C@H](CO)NC(=O)[C@H](C)NC(=O)COCCOCCNC(=O)COCCOCCNC(=O)COCCOCCNC(=O)CC[C@H](NC(=O)CCCCCCCCCCCCCCCCCCC(=O)O)C(=O)O)[C@@H](C)O)C(=O)NCC(=O)N[C@@H](CCCNC(=N)N)C(=O)N[C@@H](CC(C)C)C(=O)N[C@@H](CO)C(=O)N[C@@H](C)C(=O)N[C@@H](CCC(=O)O)C(=O)N[C@@H](CC(C)C)C(=O)N[C@@H](Cc1cnc[nH]1)C(=O)N[C@@H](CCC(=O)O)C(=O)N[C@@H](CC(C)C)C(=O)N[C@@H](C)C(=O)N[C@H](C(=O)N[C@@H](CC(C)C)C(=O)N1CCC[C@H]1C(=O)N[C@@H](CCCNC(=N)N)C(=O)N[C@H](C(=O)N[C@@H](CCC(=O)O)C(=O)N[C@H](C(=O)NCC(=O)N[C@@H](CO)C(=O)NCC(=O)N[C@@H](CO)C(=O)N1CCC[C@H]1C(N)=O)[C@@H](C)O)[C@@H](C)O)[C@@H](C)O` [compound 43, [N-terminal(C20 diacid-gGlu-3xOEG), des1, 30S, 31G]mimylin] ({C20 diacid-γGlu-AEEA-AEEA-AEEA}-ASELSTAALGRLSAELHELATLPRTETGSGSP-NH2), the Solubility result by setting is: (pH 3.0) “≧200 μM”; (pH 4.0) “≧200 μM”; (pH 5.0) “≧200 μM”; (pH 6.0) “≧200 μM”; (pH 6.5) “≧200 μM”; (pH 7.0) “≧200 μM”. Further, the Solubility result by setting is: (pH 7.5) “≧200 μM”; (pH 8.0) “≧200 μM”.

Consider `CC(C)C[C@H](NC(=O)[C@H](C)NC(=O)[C@H](C)NC(=O)[C@@H](NC(=O)[C@H](CO)NC(=O)[C@H](CC(C)C)NC(=O)[C@H](CCC(=O)O)NC(=O)[C@H](CO)NC(=O)[C@H](C)NC(=O)CC[C@H](NC(=O)CCCCCCCCCCCCCCCCCCC(=O)O)C(=O)O)[C@@H](C)O)C(=O)NCC(=O)N[C@@H](Cc1cnc[nH]1)C(=O)N[C@@H](CC(C)C)C(=O)N[C@@H](CO)C(=O)N[C@@H](C)C(=O)N[C@@H](CCC(=O)O)C(=O)N[C@@H](CC(C)C)C(=O)N[C@@H](Cc1cnc[nH]1)C(=O)N[C@@H](CCC(=O)O)C(=O)N[C@@H](CC(C)C)C(=O)N[C@@H](C)C(=O)N[C@H](C(=O)N[C@@H](CC(C)C)C(=O)N1CCC[C@H]1C(=O)N[C@@H](Cc1cnc[nH]1)C(=O)N[C@H](C(=O)N[C@@H](CCC(=O)O)C(=O)N[C@H](C(=O)NCC(=O)N[C@H](C(=O)NCC(=O)N[C@H](C(=O)N1CCC[C@H]1C(N)=O)[C@@H](C)O)[C@@H](C)O)[C@@H](C)O)[C@@H](C)O)[C@@H](C)O` [compound 93, [N-terminal(C20 diacid-gGlu), des1, 12H, 25H, 30T, 31G, 32T]mimylin] ({C20 diacid-γGlu}-ASELSTAALGHLSAELHELATLPHTETGTGTP-NH2), for which the Solubility result is, setting by setting: (pH 3.0) “≧200 μM”; (pH 4.0) “≧200 μM”; (pH 5.0) “≧200 μM”; (pH 6.0) “≧200 μM”; (pH 6.5) “≧200 μM”; (pH 7.0) “≧200 μM”. Moreover, the Solubility entry by setting is: (pH 7.5) “≧200 μM”; (pH 8.0) “≧200 μM”.

For `CC(C)C[C@H](NC(=O)[C@H](C)NC(=O)[C@H](C)NC(=O)[C@@H](NC(=O)[C@H](CO)NC(=O)[C@H](CC(C)C)NC(=O)[C@H](CCC(=O)O)NC(=O)[C@H](CO)NC(=O)[C@H](C)NC(=O)[C@H](CCC(=O)O)NC(=O)CCCCCCCCCCCCCCCCC(=O)O)[C@@H](C)O)C(=O)NCC(=O)N[C@@H](CCCNC(=N)N)C(=O)N[C@@H](CC(C)C)C(=O)N[C@@H](CO)C(=O)N[C@@H](C)C(=O)N[C@@H](CCC(=O)O)C(=O)N[C@@H](CC(C)C)C(=O)N[C@@H](Cc1cnc[nH]1)C(=O)N[C@@H](CCC(=O)O)C(=O)N[C@@H](CC(C)C)C(=O)N[C@@H](C)C(=O)N[C@H](C(=O)N[C@@H](CC(C)C)C(=O)N1CCC[C@H]1C(=O)N[C@@H](CCCNC(=N)N)C(=O)N[C@H](C(=O)N[C@@H](CCC(=O)O)C(=O)N[C@H](C(=O)NCC(=O)N1CCC[C@H]1C(=O)N[C@@H](CCC(=O)O)C(=O)N[C@@H](Cc1cnc[nH]1)C(=O)N1CCC[C@H]1C(N)=O)[C@@H](C)O)[C@@H](C)O)[C@@H](C)O` [compound 18, [N-terminal(C18 diacid), 32H]mimylin] ({C18 diacid}-EASELSTAALGRLSAELHELATLPRTETGPEHP-NH2), the Solubility result is, setting by setting: (pH 3.0) “≧200 μM”; (pH 4.0) “≧200 μM”; (pH 5.0) “≧200 μM”; (pH 6.0) “≧200 μM”; (pH 6.5) “≧200 μM”; (pH 7.0) “≧200 μM”. Further, the Solubility entry is “≧200 μM” (pH 7.5) and “≧200 μM” (pH 8.0).

The values are drawn from patent US9593149B2, “Amylin and calcitonin receptor agonist” (Novo Nordisk A/S, priority 2014, dated 2017).
